Measurements as given in patent publication EP2975030B1, “DIHYDROPYRIDAZINE-3,5-DIONE DERIVATIVE” (Chugai Seiyaku Kabushiki Kaisha, priority 2013, dated 2014).

Tests used:
[1] = test system: rat small-intestinal brush border membrane vesicles; experiment: Inhibitory effect on 33PO4 uptake into rat small-intestinal brush border membrane vesicles (rapid filtration method); assay type: biochemical, Wistar female rat; conditions: 1 µM test compound; 33PO4 uptake into rat small-intestinal BBMVs, 60 seconds
In short: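 33PO4 uptake into rat small-intestinal brush border membrane vesicles measured by rapid filtration. Reactions were stopped with ice-cold buffer (110 mM NaCl, 1 mM KH2PO4, 10 mM HEPES pH 7.5), filtered and washed. Vesicle-associated radioactivity was counted by liquid scintillation.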

[2] = test system: adenine-induced renal failure rat; experiment: Suppressive effect on rise in serum phosphorus concentration of adenine-induced renal failure rat (0.1% in feed, 3 days); assay type: in vivo, Wistar male rat; conditions: feed or water, 72 h, rate of suppression of a rise in serum phosphorus concentration, 0.1% of mass concentration in feed
Source text: Test Example 5: Suppressive effect on rise in serum phosphorus concentration of adenine-induced renal failure rat Adenine was forcedly administered orally to each Wistar male rat (7-8 weeks old) to impair renal functions and thereby prepare a hyperphosphatemia model ([…], Nagano N, Burke SK, Fukushima N. Sevelamer hydrochloride prevents ectopic calcification and renal osteodystrophy in chronic renal failure rats. Kidney Int. 2003 Aug; 64 (2): 441-50). Each test compound was mixed at a ratio of 0.1% of mass concentration with feed. The animal was fed with a given amount of the feed for 3 days. A group given feed non-supplemented with a test compound was used as a reference pathological group, and an adenine-unadministered group given feed non-supplemented with a test compound was used as a normal group. 3 days after the start of administration of the test compound, blood was collected from the jugular vein, and serum was collected. Serum phosphorus concentrations were measured by the Fiske-Subbarow method. The rate of suppression of a rise in serum phosphorus concentration was determined according to the following expression: Rate (%) of suppression of a rise in serum phosphorus concentration = (1-[([…]-treatedpathologicalgroup); -(Serumphosphorusconcentrationofthenormalgroup)]/; [(Serumphosphorusconcentrationofthereferencepathologicalgroup)-(Serumphosphorusconcentrationofthenormalgroup)]) × 100 [formula] As a result, each test compound was confirmed to have a suppressive effect on a rise in serum phosphorus concentration. […]

Compound	Rate of uptake inhibition (%) (1 µM) [1]	inhibition in vivo at 0.1 %, 0.1 % in feed [2]
COCCN(C)CCOc1ccc(CN2C(=O)C(C(=O)Nc3ccc(C(F)(F)F)cc3-c3cc(C(F)(F)F)ncn3)=C(O)C3(CCC3)N2C)c(F)c1F [Example 13, 6-[[2,3-Difluoro-4-[2-[2-methoxyethyl(methyl)amino]ethoxy]phenyl]methyl]-9-hydroxy-5-methyl-7-oxo-N-[4-(trifluoromethyl)-2-[6-(trifluoromethyl)pyrimidin-4-yl]phenyl]-5,6-diazaspiro[3.5]non-8-ene-8-carboxamide]	58%	25%
COCCN(C)CCOc1ccc(CN2C(=O)C(C(=O)Nc3ccc(C(F)(F)F)cc3-c3cc(C(F)(F)F)ncn3)=C(O)C3(CCCC3)N2C)c(F)c1F [Example 14, 7-[[2,3-Difluoro-4-[2-[2-methoxyethyl(methyl)amino]ethoxy]phenyl]methyl]-10-hydroxy-6-methyl-8-oxo-N-[4-(trifluoromethyl)-2-[6-(trifluoromethyl)pyrimidin-4-yl]phenyl]-6,7-diazaspiro[4.5]dec-9-ene-9-carboxamide]	29%	39%
Cc1c(C#N)ncnc1-c1cc(C(F)(F)F)ccc1NC(=O)C1=C(O)[C@@]2(C)CCCN2N(Cc2ccc(OCCN3CCOCC3)c(F)c2F)C1=O [Example 22, (4aR)-N-[2-(6-Cyano-5-methylpyrimidin-4-yl)-4-(trifluoromethyl)phenyl]-1-[[2,3-difluoro-4-(2-morpholin-4-ylethoxy)phenyl]methyl]-4-hydroxy-4a-methyl-2-oxo-6,7-dihydro-5H-pyrrolo[1,2-b]pyridazine-3-carboxamide]	50%	26%
C[C@]12CCCN1N(Cc1ccc(C#CCCCC(=O)O)c(F)c1F)C(=O)C(C(=O)Nc1ccc(C(F)(F)F)cc1-c1cc(C(F)(F)F)ncn1)=C2O [Example 129, 6-[4-[[(4aR)-4-Hydroxy-4a-methyl-2-oxo-3-[[4-(trifluoromethyl)-2-[6-(trifluoromethyl)pyrimidin-4-yl]phenyl]carbamoyl]-6,7-dihydro-5H-pyrrolo[1,2-b]pyridazin-1-yl]methyl]-2,3-difluorophenyl]hex-5-ynoic acid]	63%	17%
C[C@]12CCCN1N(Cc1ccc(C#CCN3CCOCC3)c(F)c1F)C(=O)C(C(=O)Nc1ccc(C(F)(F)F)cc1-c1ccc(C(F)(F)F)nc1)=C2O [Example 140, (4aR)-1-[[2,3-Difluoro-4-(3-morpholin-4-ylprop-1-ynyl)phenyl]methyl]-4-hydroxy-4a-methyl-2-oxo-N-[4-(trifluoromethyl)-2-[6-(trifluoromethyl)pyridin-3-yl]phenyl]-6,7-dihydro-5H-pyrrolo[1,2-b]pyridazine-3-carboxamide]	77%	39%
COCCN(C)CCOc1c(I)cc(CN2C(=O)C(C(=O)Nc3ccc(C(F)(F)F)cc3-c3cc(C(F)(F)F)ncn3)=C(O)C3(CCCC3)N2C)c(F)c1F [Example 437, 7-[[2,3-Difluoro-5-iodo-4-[2-[2-methoxyethyl(methyl)amino]ethoxy]phenyl]methyl]-10-hydroxy-6-methyl-8-oxo-N-[4-(trifluoromethyl)-2-(6-(trifluoromethyl)pyrimidin-4-yl]phenyl]-6,7-diazaspiro[4.5]dec-9-ene-9-carboxamide]	45%	
COCCOc1cc(NC(=O)C2=C(O)C3(CCCC3)N(C)N(Cc3ccc(OCCN(C)CCOC)c(F)c3F)C2=O)c(-c2ncnc(C(F)(F)F)c2C)cc1C(F)(F)F [Example 439, 7-[[2,3-Difluoro-4-[2-[2-methoxyethyl(methyl)amino]ethoxy]phenyl]methyl]-10-hydroxy-N-[5-(2-methoxyethoxy)-2-[5-methyl-6-(trifluoromethyl)pyrimidin-4-yl]-4-(trifluoromethyl)phenyl]-6-methyl-8-oxo-6,7-diazaspiro[4.5]dec-9-ene-9-carboxamide]	35%	
COCCN(C)CCOc1c(-c2cccnc2)cc(CN2C(=O)C(C(=O)Nc3ccc(C(F)(F)F)cc3-c3cc(C(F)(F)F)ncn3)=C(O)C3(CCCC3)N2C)c(F)c1F [Example 440, 9-[[2,3-Difluoro-4-[2-[2-methoxyethyl(methyl)amino]ethoxy]-5-(3-pyridinyl)phenyl]methyl]-6-hydroxy-10-methyl-8-oxo-N-[4-(trifluoromethyl)-2-[6-(trifluoromethyl)pyrimidin-4-yl]phenyl]-9,10-diazaspiro[4.5]dec-6-ene-7-carboxamide]	28%	
CN(C[C@H](O)[C@@H](O)[C@H](O)[C@H](O)CO)C(=O)COCCOCCOCCOCCOc1ccc(CN2C(=O)C(C(=O)Nc3ccc(C(F)(F)F)cc3-c3cc(C(F)(F)F)ncn3)=C(O)C3(CCCC3)N2C)c(F)c1F [Example 441, 7-[[2,3-Difluoro-4-[2-[2-[2-[2-[2-[methyl-[(2S,3R,4R,5R)-2,3,4,5,6-pentahydroxyhexyl]amino]-2-oxoethoxy]ethoxy]ethoxy]ethoxy]ethoxy]phenyl]methyl]-10-hydroxy-6-methyl-8-oxo-N-[4-(trifluoromethyl)-2-[6-(trifluoromethyl)pyrimidin-4-yl]phenyl]-6,7-diazaspiro[4.5]dec-9-ene-9-carboxamide]	22%	
COCCN(C)CCN(C)c1ccc(CN2C(=O)C(C(=O)Nc3ccc(C(F)(F)F)cc3-c3cc(C(F)(F)F)ncn3)=C(O)C3(CCCC3)N2C)c(F)c1F [Example 442]	24%	
CCN(CCN(C)CCOC)c1ccc(CN2C(=O)C(C(=O)Nc3ccc(C(F)(F)F)cc3-c3cc(C(F)(F)F)ncn3)=C(O)C3(CCCC3)N2C)c(F)c1F [Example 443]	28%	
CCCN(CCN(C)CCOC)c1ccc(CN2C(=O)C(C(=O)Nc3ccc(C(F)(F)F)cc3-c3cc(C(F)(F)F)ncn3)=C(O)C3(CCCC3)N2C)c(F)c1F [Example 444]	24%	
COCCN(C)CCN(c1ccc(CN2C(=O)C(C(=O)Nc3ccc(C(F)(F)F)cc3-c3cc(C(F)(F)F)ncn3)=C(O)C3(CCCC3)N2C)c(F)c1F)C(C)C [Example 445]	29%	
CN1N(Cc2ccc(NCCCN3CCOCC3)c(F)c2F)C(=O)C(C(=O)Nc2ccc(C(F)(F)F)cc2-c2cc(C(F)(F)F)ncn2)=C(O)C12CCCC2 [Example 446]	31%	
CN1N(Cc2ccc(NCCN3CCOCC3)c(F)c2F)C(=O)C(C(=O)Nc2ccc(C(F)(F)F)cc2-c2cc(C(F)(F)F)ncn2)=C(O)C12CCCC2 [Example 447]	50%	
(4aR)-1-[(2,3-Difluorophenyl)methyl]-4-hydroxy-N-[5-methyl-2-(trifluoromethyl)furan-3-yl]-2-oxo-4a-propyl-6,7-dihydro-5H-pyrrolo[1,2-b]pyridazine-3-carboxamide [Example 12]	27%	
(4aR)-1-[(2,3-Difluorophenyl)methyl]-4a-ethyl-4-hydroxy-N-[5-methyl-2-(trifluoromethyl)furan-3-yl]-2-oxo-6,7-dihydro-5H-pyrrolo[1,2-b]pyridazine-3-carboxamide [Example 10]	37%	
(4aR)-1-[(3-Fluorophenyl)methyl]4-hydroxy-N-[5-methyl-2-(trifluoromethyl)furan-3-yl]-2-oxo-4a-propyl-6,7-dihydro-5H-pyrrolo[1,2-b]pyridazine-3-carboxamide [Example 11]	22%	
(4aR)-1-[(3-Fluorophenyl)methyl]-4-hydroxy-4a-methyl-N-[5-methyl-2-(trifluoromethyl)furan-3-yl]-2-oxo-6,7-dihydro-5H-pyrrolo[1,2-b]pyridazine-3-carboxamide [Example 6]	48%	
(4aR)-4a-Ethyl-1-[(3-fluorophenyl)methyl]-4-hydroxy-N-[5-methyl-2-(trifluoromethyl)furan-3-yl]-2-oxo-6,7-dihydro-5H-pyrrolo[1,2-b]pyridazine-3-carboxamide [Example 9]	63%	
(4aS)-1-[(2,3-Difluorophenyl)methyl]-6,6-difluoro-4-hydroxy-N-[5-methyl-2-(trifluoromethyl)furan-3-yl]-2-oxo-5,7-dihydro-4aH-pyrrolo[1,2-b]pyridazine-3-carboxamide [Example 5]	54%	
(4aS,5S,8R)-1-(3-Fluorobenzyl)-4-hydroxy-N-(5-methyl-2-(trifluoromethyl)furan-3-yl)-2-oxo-2,4a,5,6,7,8-hexahydro-1H-5,8-methanopyrido[1,2-b]pyridazine-3-carboxamide [Example 20]	21%	
